In US8648066B2 (Exelixis, Inc., priority 2009, dated 2014):
Values joined by “and” are separate entries in the source; they are usually repeats but may differ in a detail not shown here. Equal values may be shown once.

Molecular target: mTOR/GbL/Raptor (mTORC1) (Homo sapiens, UniProt P42345)
Assay: mTOR/GbL/Raptor (mTORC1) ELISA assay
Type: biochemical
Settings: phosphorylation of 4E-BP1; 0.2 nM mTORC1, 10 μM ATP; read-out: IC50 in this assay (mTORC1 ELISA)
Method in brief: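 Human mTORC1 (0.2 nM) phosphorylated 50 nM His-tagged 4E-BP1 with 10 µM ATP in HEPES pH 7.2 containing 10 mM MnCl2, 120 min at ambient temperature. Substrate was captured on Ni-chelate plates; phospho-4E-BP1 was detected by primary antibody and HRP secondary with luminescence.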

IC50	SMILES
10 to 50 nM and 50 to 250 nM	CC(=O)Nc1nc2cc(-c3ccc4c(c3)CN(c3nc(CN(C)C)nc5c3CC(C)(C)CC5)CCO4)cnc2s1 [Example 617, N-[6-(4-{2-[(dimethylamino)methyl]-6,6-dimethyl-5,6,7,8-tetrahydroquinazolin-4-yl}-2,3,4,5-tetrahydro-1,4-benzoxazepin-7-yl)[1,3]thiazolo[5,4-b]pyridin-2-yl]acetamide]
≤ 10 nM	Cc1ncnc(N2CCOc3ccc(-c4cnc5sc(N)nc5c4)cc3C2)c1Cc1ccc(F)cc1 [Example 217, 6-(4-{5-[(4-fluorophenyl)methyl]-6-methylpyrimidin-4-yl}-2,3,4,5-tetrahydro-1,4-benzoxazepin-7-yl)[1,3]thiazolo[5,4-b]pyridin-2-amine]
50 to 250 nM	CC1(C)CCc2ncnc(N3CCOc4ccc(-c5cnc(N)c(S(=O)(=O)NC6CCC6)c5)cc4C3)c2C1 [Example 427, 2-amino-N-cyclobutyl-5-[4-(6,6-dimethyl-5,6,7,8-tetrahydroquinazolin-4-yl)-2,3,4,5-tetrahydro-1,4-benzoxazepin-7-yl]pyridine-3-sulfonamide]
10 to 50 nM	Cc1nc2ncc(-c3ccc4c(c3)CN(c3nc(CN5CC[C@@H](F)C5)nc5c3CC(C)(C)CC5)CCO4)cc2[nH]1 [Example 462]
10 to 50 nM	Cc1nc2ncc(-c3ccc4c(c3)CN(c3nc(CNCC(C)C)nc5c3CC(C)(C)CC5)CCO4)cc2[nH]1 [Example 594, N-({6,6-dimethyl-4-[7-(2-methyl-1H-imidazo[4,5-b]pyridin-6-yl)-2,3-dihydro-1,4-benzoxazepin-4(5H)-yl]-5,6,7,8-tetrahydroquinazolin-2-yl}methyl)-2-methylpropan-1-amine]
10 to 50 nM	COc1ccccc1Cc1c(C)ncnc1N1CCOc2ccc(-c3ccc4nc(C)[nH]c4c3)cc2C1 [Example 84, 7-(2-methyl-1H-benzimidazol-6-yl)-4-(6-methyl-5-{[2-(methyloxy)phenyl]methyl}pyrimidin-4-yl)-2,3,4,5-tetrahydro-1,4-benzoxazepine]
10 to 50 nM	CCNc1nc2ccc(-c3ccc4c(c3)CN(c3ccnc5cc(OC)ccc35)CCO4)cc2[nH]1 [Example 291, N-ethyl-6-{4-[7-(methyloxy)quinolin-4-yl]-2,3,4,5-tetrahydro-1,4-benzoxazepin-7-yl}-1H-benzimidazol-2-amine]
10 to 50 nM	Cc1nc2ccc(-c3ccc4c(c3)CN(c3nc(CNC5CC5)nc5c3CC(C)(C)CC5)CCO4)cc2[nH]1 [Example 588, N-({6,6-dimethyl-4-[7-(2-methyl-1H-benzimidazol-6-yl)-2,3-dihydro-1,4-benzoxazepin-4(5H)-yl]-5,6,7,8-tetrahydroquinazolin-2-yl}methyl)cyclopropanamine]
50 to 250 nM	CCNc1nc2ccc(-c3ccc4c(c3)CN(c3ccnc5c(F)cccc35)CCO4)cc2[nH]1 [Example 282, N-ethyl-6-[4-(8-fluoroquinolin-4-yl)-2,3,4,5-tetrahydro-1,4-benzoxazepin-7-yl]-1H-benzimidazol-2-amine]
10 to 50 nM	CNCc1nc2ncc(-c3ccc4c(c3)CN(c3ncnc5c3CC(C)(C)CC5)CCO4)cc2[nH]1 [Example 358, 1-{6-[4-(6,6-dimethyl-5,6,7,8-tetrahydroquinazolin-4-yl)-2,3,4,5-tetrahydro-1,4-benzoxazepin-7-yl]-1H-imidazo[4,5-b]pyridin-2-yl}-N-methylmethanamine]
50 to 250 nM	CNC(=O)c1ccc(-c2ccc3c(c2)CN(c2nc(CN(C)C)nc4c2CC(C)(C)CC4)CCO3)cc1 [Example 466, 4-(4-{2-[(dimethylamino)methyl]-6,6-dimethyl-5,6,7,8-tetrahydroquinazolin-4-yl}-2,3,4,5-tetrahydro-1,4-benzoxazepin-7-yl)-N-methylbenzamide]
50 to 250 nM	CCNc1nc2ccc(-c3ccc4c(c3)CN(c3cc(C)nc5ccccc35)CCO4)cc2[nH]1 [Example 246, N-ethyl-6-[4-(2-methylquinolin-4-yl)-2,3,4,5-tetrahydro-1,4-benzoxazepin-7-yl]-1H-benzimidazol-2-amine]
250 to 1000 nM	Cc1nc(Nc2ccccc2)c(C)c(N2CCOc3ccc(-c4ccc5nc[nH]c5c4)cc3C2)n1 [Example 529, 6-[7-(1H-benzimidazol-6-yl)-2,3-dihydro-1,4-benzoxazepin-4(5H)-yl]-2,5-dimethyl-N-phenylpyrimidin-4-amine]
250 to 1000 nM	Cc1nc2ccc(-c3ccc4c(c3)CN(c3ncnc(C(C)C)c3C)CCO4)cc2[nH]1 [Example 62, 7-(2-methyl-1H-benzimidazol-6-yl)-4-[5-methyl-6-(1-methylethyl)pyrimidin-4-yl]-2,3,4,5-tetrahydro-1,4-benzoxazepine]
10 to 50 nM	CC1(C)CCc2ncnc(N3CCOc4ccc(-c5cnc(N)c(S(=O)(=O)NCC6CCCCN6)c5)cc4C3)c2C1 (stereo not shown) [Example 376, 2-amino-5-[4-(6,6-dimethyl-5,6,7,8-tetrahydroquinazolin-4-yl)-2,3,4,5-tetrahydro-1,4-benzoxazepin-7-yl]-N-(piperidin-2-ylmethyl)pyridine-3-sulfonamide]
250 to 1000 nM	Cc1nc2ccc(-c3ccc4c(c3)CN(c3ccnc(N)n3)CCO4)cc2[nH]1 [Example 96, 4-[7-(2-methyl-1H-benzimidazol-6-yl)-2,3-dihydro-1,4-benzoxazepin-4(5H)-yl]pyrimidin-2-amine]
50 to 250 nM	CC1=Cc2ncnc(N3CCOc4ccc(-c5cnc(N)c(S(=O)(=O)NC[C@H]6CCN(C)C6)c5)cc4C3)c2CC1(C)C [Example 424, 2-amino-N-{[(3S)-1-methylpyrrolidin-3-yl]methyl}-5-[4-(6,6,7-trimethyl-5,6-dihydroquinazolin-4-yl)-2,3,4,5-tetrahydro-1,4-benzoxazepin-7-yl]pyridine-3-sulfonamide]
≥ 2000 nM	Cc1c(NCC2CCN(C)CC2)ncnc1N1CCOc2ccc(-c3cnc4nc(C5CC5)[nH]c4c3)cc2C1 [Example 533, 6-[7-(2-cyclopropyl-1H-imidazo[4,5-b]pyridin-6-yl)-2,3-dihydro-1,4-benzoxazepin-4(5H)-yl]-5-methyl-N-[(1-methylpiperidin-4-yl)methyl]pyrimidin-4-amine]
10 to 50 nM	Nc1nc2ncc(-c3ccc4c(c3)CN(c3ncnc5cc(Cl)c(Br)cc35)CCO4)cc2[nH]1 [Example 185, 6-[4-(6-bromo-7-chloroquinazolin-4-yl)-2,3,4,5-tetrahydro-1,4-benzoxazepin-7-yl]-1H-imidazo[4,5-b]pyridin-2-amine]
50 to 250 nM	CCNc1nc2ccc(-c3ccc4c(c3)CN(c3ncnc5cc(F)ccc35)CCO4)cc2[nH]1 [Example 281, N-ethyl-6-[4-(7-fluoroquinazolin-4-yl)-2,3,4,5-tetrahydro-1,4-benzoxazepin-7-yl]-1H-benzimidazol-2-amine]
50 to 250 nM	COC(=O)Nc1nc2ncc(-c3ccc4c(c3)CN(c3nc(CN(C)C)nc5c3CC(C)(C)CC5)CCO4)cc2[nH]1 [Example 580]
50 to 250 nM	Cc1nc2ncc(-c3ccc4c(c3)CN(c3nc(CN5CCCCC5)nc5c3CC(C)(C)CC5)CCO4)cc2[nH]1 [Example 499, 4-[6,6-dimethyl-2-(piperidin-1-ylmethyl)-5,6,7,8-tetrahydroquinazolin-4-yl]-7-(2-methyl-1H-imidazo[4,5-b]pyridin-6-yl)-2,3,4,5-tetrahydro-1,4-benzoxazepine]
